Experimental findings from US8563754B2, “Compounds, compositions and methods for preventing skin darkening” (priority 2010, dated 2013) are described below.

The test concerns cultured murine melanocytes (melan-a). The test can be described thus: Melanin assay in cultured murine melanocytes (melan-a). Type of test: cell-based. The note with it: for activity at 1 µM / activity at 5 µM: Mus musculus; for activity at 1 µM: read-out: % of control melanin remaining after treatment @ 1 μM; for activity at 5 µM: read-out: % of control melanin remaining after treatment @ 5 μM; for ability to block melanin accumulation: cells treated with 1 and 5 uM test compound versus carrier (DMSO) only. Here is the method:
The Spectrum Collection library consisting of 2000 drug compounds or natural products represents a source for the identification of compounds useful in the present invention. The library may be screened to identify novel pigmentation inhibitors in cultured murine melanocytes (melan-a). Compounds are dissolved in dimethylsulfoxide (DMSO) to a final concentration of 10 mM. Screening is performed with cultured melanocytes in 24-well plates followed by melanin assay (see below). A minimum change of 50% in melanin formation is established as significant for a pigmentation inhibitor. DMSO may be used as a negative control and the widely used depigmenting agent, hydroquinone, may be used as a positive control on every plate. Primary screening is performed at a final concentration of 1 μM and potential candidates from the primary screening are reconfirmed in duplicate at final concentrations of 1 and 5 μM.
Melan-a cells are plated at 5×10^4 cells per well in 1 ml of culture media in 24-well plates the day before adding the library compounds. All compounds are added at the indicated final concentrations. Cells are harvested after 72 hours of incubation, and the melanin assay is performed.
For the primary and secondary screening, cells were harvested and dissolved in 200 μl of 2N NaOH in 20% DMSO at 70° C. A 180-μl aliquot of the resulting solution was measured for absorbance at 490 nm.
A series of structurally related compounds was then tested in this screen, to identify compounds that inhibit skin darkening.

The mark [1] stands for this setting: 1 μM test compound, melan-a cells, 72 hours incubation, control = DMSO carrier, absorbance at 490 nm.
Setting [2] is: 5 μM test compound, melan-a cells, 72 hours incubation, control = DMSO carrier, absorbance at 490 nm.

Read-outs that look alike come from different tables or passages of the source.

For `CC(=O)O[C@@H]1c2c(ccc3ccc(=O)oc23)OC(C)(C)[C@@H]1OC(=O)CC(C)C` [Compound 30, DIHYDROSAMIDIN], the activity at 1 µM under setting [1] worked out at 106%. For the same compound, the activity at 5 µM under setting [2] stood at 88%.
On the same counts, the results for `C=C(C)[C@H]1COc2cc3oc(=O)ccc3cc2O1` [Compound 2, OBLIQUIN] are 84% and 95%.
Take `COc1c2occc2cc2ccc(=O)oc12` [Compound 20, METHOXSALEN, reference compound]: the activity at 1 µM under setting [1] was found to be 120%. For the same compound, the activity at 5 µM under setting [2] came out at 125%.
Turning to DERRUSNIN [Compound 36], the “% of control melanin remaining after treatment @ 1 μM” value under setting [1] was 81 % of control. Also, the “% of control melanin remaining after treatment @ 5 μM” value under setting [2] was 87 % of control.
As to `CC1(C)Oc2ccc3ccc(=O)oc3c2CC1O` (stereo not shown) [Compound 27, LOMATIN], the activity at 1 µM under setting [1] was 89%. The activity at 5 µM under setting [2] came out at 85%.
For the compound `CC(=O)OC(C)(C)[C@@H]1Cc2cc3ccc(=O)oc3cc2O1` [Compound 32, MARMESIN ACETATE], the activity at 1 µM under setting [1] is 77%. In addition, the activity at 5 µM under setting [2] stood at 92%.
The corresponding values for `O=c1ccc2cc(O[C@@H]3O[C@H](CO)[C@@H](O)[C@H](O)[C@H]3O)c(O)cc2o1` [Compound 26, AESCULIN] are 70% and 84%.
On the same counts, the results for `C/C=C(/C)C(=O)O[C@@H]1Cc2c(ccc3ccc(=O)oc23)OC1(C)C` [Compound 28, SELINIDIN] are 85% and 82%.
As to `COc1c(O)cc2c(-c3ccccc3)cc(=O)oc2c1OC` [Compound 11, KUHLMANNIN], the activity at 1 µM under setting [1] was found to be 81%. Also, the activity at 5 µM under setting [2] came to 84%.
The corresponding values for `COc1cc2ccc(=O)oc2c(O)c1O` [Compound 39, FRAXETIN] are 84% and 89%.
Take `CC(C)(O)[C@@H]1Cc2cc3ccc(=O)oc3cc2O1` [Compound 31, MARMESIN]: under setting [1], the activity at 1 µM came out at 89%. Further, under setting [2], the activity at 5 µM stood at 97%.
The corresponding values for `COc1cc2ccc(=O)oc2c2ccoc12` [Compound 12, SPHONDIN] are 89% and 101%.
On the same counts, the results for `C/C=C(\C)C(=O)O[C@@H]1c2c(ccc3ccc(=O)oc23)OC(C)(C)[C@@H]1OC(C)=O` [Compound 29, PTERYXIN] are 93% and 101%.
The corresponding values for `CC(C)=CCOc1c2occc2cc2ccc(=O)oc12` [Compound 6, IMPERATORIN] are 91% and 96%.
With `COc1c(C(C)C)oc2cc3oc(=O)ccc3cc12` [Compound 34, PEUCEDANIN], the activity at 1 µM under setting [1] turned out to be 83%. The activity at 5 µM under setting [2] amounted to 84%.
`COc1ccc(-c2c(OC)c3c(OC)c4c(cc3oc2=O)OC(C)(C)C=C4)cc1` [Compound 9, ROBUSTIC ACID METHYL ETHER]: the “ability to block melanin accumulation” value is given as “robust dose dependent ability to block melanin accumulation”. For the same compound, the activity at 1 µM under setting [1] amounted to 69%. Moreover, the activity at 5 µM under setting [2] is 16%.
On to `Cc1cc2cc3c(C)cc(=O)oc3c(C)c2o1` [Compound 22, TRIOXSALEN, reference compound], for which the activity at 1 µM under setting [1] turned out to be 90%. In addition, under setting [2], the activity at 5 µM was 118%.
With `COc1cc2ccc(=O)oc2cc1O` [Compound 38, SCOPOLETIN], under setting [1], the activity at 1 µM amounted to 77%. Also, the activity at 5 µM under setting [2] is 83%.
On the same counts, the results for `CC1(C)C=Cc2cc3ccc(=O)oc3cc2O1` [Compound 5, XANTHYLETIN] are 99% and 110%.
The corresponding values for `COc1c(OC)c2occc2c2oc(=O)ccc12` [Compound 14, PIMPINELLIN] are 76% and 109%.
On to `CC(C)=CCOc1cc2oc(=O)ccc2cc1O` [Compound 1, PRENYLETIN], for which, under setting [1], the activity at 1 µM was 79%. Further, the activity at 5 µM under setting [2] was found to be 80%.
With `CCOP(=S)(OCC)Oc1ccc2c(C)c(Cl)c(=O)oc2c1` [Compound 19, COUMOPHOS], the “ability to block melanin accumulation” value is “robust dose dependent ability to block melanin accumulation”. The activity at 1 µM under setting [1] turned out to be 81%. Also, the activity at 5 µM under setting [2] stood at 48%.
`Cc1cc(=O)oc2c(O)c(O)ccc12` [Compound 37, 4- METHYLDAPHNETIN]: the activity at 1 µM under setting [1] is 83%. Also, the activity at 5 µM under setting [2] was determined as 88%.
For the compound `COc1cc2c(cc1-c1cc3cc4ccoc4cc3oc1=O)OCO2` [Compound 7, PACHYRRHIZIN], the “ability to block melanin accumulation” value is on record as “robust dose dependent ability to block melanin accumulation”. For the setting “Melan-a, 72 h”, the activity at 1 µM was determined as 75% and the activity at 5 µM was 71%.
`COc1ccc2ccc(=O)oc2c1` [Compound 8, HERNIARIN]: the activity at 1 µM under setting [1] was found to be 84%. For the same compound, the activity at 5 µM under setting [2] came to 81%.
As to `COc1c(CC=C(C)C)c2c(c3oc(=O)c(-c4ccc(O)cc4)c(O)c13)C=CC(C)(C)O2` [Compound 16, SCANDENIN], the “ability to block melanin accumulation” value is listed as “robust dose dependent ability to block melanin accumulation”. Further, under setting [1], the activity at 1 µM worked out at 90%. Moreover, under setting [2], the activity at 5 µM came out at 64%.
Regarding `COc1cc2occc2c2oc(=O)ccc12` [Compound 15, ISOBERGAPTENE], the activity at 1 µM under setting [1] is 86%. The activity at 5 µM under setting [2] is 108%.
On the same counts, the results for `COc1cc2ccc(=O)oc2c(OC)c1OC` [Compound 4, FRAXIDIN METHYL ETHER] are 87% and 95%.
Take `COc1cc(OC)c2ccc(=O)oc2c1` [Compound 23, CITROPTEN]: the activity at 1 µM under setting [1] was determined as 86%. For the same compound, the activity at 5 µM under setting [2] was 97%.
As for `CC(C)C1COc2cc3oc(=O)ccc3cc2O1` (stereo not shown) [Compound 3, DIHYDRO-OBLIQUIN], the activity at 1 µM under setting [1] was determined as 81%. The activity at 5 µM under setting [2] turned out to be 81%.
As to `COc1ccc(-c2c(O)c3c(OC)c4c(cc3oc2=O)OC(C)(C)C=C4)cc1` [Compound 10, ROBUSTIC ACID], the activity at 1 µM under setting [1] turned out to be 91%. Moreover, under setting [2], the activity at 5 µM was determined as 93%.
On the same counts, the results for `COc1ccc2c(C)cc(=O)oc2c1` [Compound 17, HYMECROMONE METHYL ETHER] are 96% and 93%.
On the same counts, the results for `COc1c2c(c(CC=C(C)C)c3oc(=O)c(-c4ccc(O)cc4)c(O)c13)OC(C)(C)C=C2` [Compound 35, LO[…]] are 84% and 81%.
On the same counts, the results for `O=c1ccc2cc(O)c(O)cc2o1` [Compound 25, ESCULETIN] are 87% and 88%.
`COc1c2ccoc2c(OC)c2oc(=O)ccc12` [Compound 13, ISOPIMPINELLIN]: the activity at 1 µM under setting [1] amounted to 86%. The activity at 5 µM under setting [2] is 95%.
Turning to `CO[C@@H]1[C@@H](OC(N)=O)[C@@H](O)[C@H](Oc2ccc3c(O)c(NC(=O)c4ccc(O)c(CC=C(C)C)c4)c(=O)oc3c2C)OC1(C)C` [Compound 21, NOVOBIOCIN SODIUM, reference compound], under setting [1], the activity at 1 µM turned out to be 90%. For the same compound, the activity at 5 µM under setting [2] came to 94%.
For the compound `COc1c2ccoc2cc2oc(=O)ccc12` [Compound 18, BERGAPTENE], the activity at 1 µM under setting [1] turned out to be 100%. Moreover, the activity at 5 µM under setting [2] was determined as 93%.
With FELAMIDIN [Compound 40], the “% of control melanin remaining after treatment @ 1 μM” value under setting [1] is listed as 97 % of control. The “% of control melanin remaining after treatment @ 5 μM” value under setting [2] is listed as 88 % of control.
As for `Cc1cc(=O)oc2cc(O)c(O)cc12` [Compound 24, 4-METHYLESCULETIN], the activity at 1 µM under setting [1] came out at 88%. Under setting [2], the activity at 5 µM stood at 100%.
